According to US9938269B2, “Inhibitor compounds of phosphodiesterase type 10A” (ABBVIE INC., priority 2011, dated 2018):
Structures can show the parent of a compound that is named as a salt.

How the values were obtained:
PDE10A (human) = target: T1, PDE10A (human) (Homo sapiens, UniProt Q9Y233); assay: Measurement of PDE activity (HTRF cAMP kit), human PDE10A; format: biochemical; details: PDE enzymatic reaction, substrate 20 nM for PDE10, 60 minutes at 29 C
T1 construct: purchased BPS Bioscience
Summary of the method: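 Recombinant human PDE10A (10–250 pM range across PDEs) with 20 nM cAMP substrate in 20 mM Tris-HCl pH 7.5, 10 mM MgCl2, 0.1% BSA, compound pre-mixed with enzyme. Ran 60 min at 29 °C. Remaining cAMP read by HTRF, converted to % of uninhibited activity, and IC50 fitted.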

[1] = Determination of the microsomal half-life, human liver microsomes; details: for microsomal CLint at 0.5 μM: human, liver microsomes, pH 7.4
Protocol: (§1) The test substances were incubated in a concentration of 0.5 μM as follows:
(§2) 0.5 μM test substance are preincubated together with liver microsomes from different species (from rat, human or other species) (0.25 mg of microsomal protein/10 in 0.05 M potassium phosphate buffer of pH 7.4 in microtiter plates at 37° C. for 5 min. The reaction is started by adding NADPH (1 mg/mL). After 0, 5, 10, 15, 20 and 30 min., 50 μl aliquots are removed, and the reaction is immediately stopped and cooled with the same volume of acetonitrile. The samples are frozen until analyzed. The remaining concentration of undegraded test substance is determined by MSMS. The half-life (T½) is determined from the gradient of the signal of test substance/unit time plot, it being possible to calculate the half-life of the test substance, assuming first order kinetics, from the decrease in the concentration of the compound with time. The microsomal clearance (mCl) is calculated from mCl=ln 2/T½/(content of microsomal protein in mg/ml)×1000 [ml/min/mg]

[2] = Determination of the microsomal half-life, rat liver microsomes; details: for microsomal CLint at 0.5 μM: rat, liver microsomes, pH 7.4
Protocol: as §1, §2

T1 sequence (Q9Y233 whole entry): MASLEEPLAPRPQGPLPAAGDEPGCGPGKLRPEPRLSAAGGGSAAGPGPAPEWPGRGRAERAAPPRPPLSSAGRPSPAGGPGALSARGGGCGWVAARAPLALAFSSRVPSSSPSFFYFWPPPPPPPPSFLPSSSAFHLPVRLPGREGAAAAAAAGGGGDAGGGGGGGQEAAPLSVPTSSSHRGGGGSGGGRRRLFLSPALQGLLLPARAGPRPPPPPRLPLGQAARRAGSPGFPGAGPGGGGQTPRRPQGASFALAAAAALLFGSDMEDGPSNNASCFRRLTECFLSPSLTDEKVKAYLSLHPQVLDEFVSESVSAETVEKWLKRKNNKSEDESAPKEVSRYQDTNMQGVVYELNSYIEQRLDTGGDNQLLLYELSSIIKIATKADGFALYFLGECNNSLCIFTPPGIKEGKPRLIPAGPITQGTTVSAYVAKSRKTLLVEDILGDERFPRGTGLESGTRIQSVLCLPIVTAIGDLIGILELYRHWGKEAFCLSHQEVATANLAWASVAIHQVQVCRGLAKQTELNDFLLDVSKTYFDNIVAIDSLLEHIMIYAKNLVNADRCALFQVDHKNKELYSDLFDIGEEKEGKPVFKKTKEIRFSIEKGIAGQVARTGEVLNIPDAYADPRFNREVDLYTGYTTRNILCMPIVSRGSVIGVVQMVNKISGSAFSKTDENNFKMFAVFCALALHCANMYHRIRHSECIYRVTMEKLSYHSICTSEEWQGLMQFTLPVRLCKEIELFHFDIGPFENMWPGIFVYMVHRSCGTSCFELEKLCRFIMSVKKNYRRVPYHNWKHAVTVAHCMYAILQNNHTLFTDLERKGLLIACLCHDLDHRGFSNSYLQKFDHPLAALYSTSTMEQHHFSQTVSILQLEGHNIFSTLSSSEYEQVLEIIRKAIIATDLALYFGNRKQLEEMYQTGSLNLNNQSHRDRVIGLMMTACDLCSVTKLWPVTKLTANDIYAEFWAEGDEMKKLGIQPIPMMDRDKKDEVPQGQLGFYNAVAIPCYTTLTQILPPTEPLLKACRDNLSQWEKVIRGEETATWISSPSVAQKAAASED

| Compound | IC50 (PDE10A (human)) [nM] | microsomal CLint at 0.5 μM [1] [µL/min/mg] | microsomal CLint at 0.5 μM [2] [µL/min/mg] | Human mCl (mikrosomal clearance) ([1]; human liver microsomes, 0.5 μM test substance, 0.25 mg microsomal protein, pH 7.4, 37° C., NADPH) | Rat mCl (mikrosomal clearance) ([2]; rat liver microsomes, 0.5 μM test substance, 0.25 mg microsomal protein, pH 7.4, 37° C., NADPH) |
| --- | --- | --- | --- | --- | --- |
| Cc1cccnc1CCN1Cc2nccc(N3CCOCC3)c2C1=O [compound 522, 6-[2-(3-Methyl-2-pyridyl)ethyl]-4-morpholino-7H-pyrrolo[3,4-b]pyridin-5-one] | 100 to 200 | < 100 | < 100 |  |  |
| O=C1c2c(-c3ccncc3)ccnc2CN1CCc1nc2ccc(F)cc2s1 [compound 402, 6-[2-(6-Fluoro-1,3-benzothiazol-2-yl)ethyl]-4-(4-pyridyl)-7H-pyrrolo[3,4-b]pyridin-5-one] | < 100 | 100 to 220 | 100 to 220 |  |  |
| O=C1Cc2ccc(-c3cccc4c3C(=O)N(CCc3cn5ccccc5n3)C4)cc2N1 [Example 241, 6-[2-(2-Imidazo[1,2-a]pyridin-2-yl-ethyl)-3-oxo-2,3-dihydro-1H-isoindol-4-yl]-1,3-dihydro-indol-2-one] | < 100 | < 100 | < 100 |  |  |
| Cc1ncccc1-c1cccc2c1C(=O)N(CCc1ccc3ccccc3n1)C2 [Example 86, 7-(2-Methyl-pyridin-3-yl)-2-(2-quinolin-2-yl-ethyl)-2,3-dihydro-isoindol-1-one] | < 100 | 100 to 220 | > 220 |  |  |
| O=C1c2c(cccc2-c2ccc(C(F)(F)F)nc2)CN1CCc1ccc2ccccc2n1 [Example 98, 2-(2-Quinolin-2-yl-ethyl)-7-(6-trifluoromethyl-pyridin-3-yl)-2,3-dihydro-isoindol-1-one] | 200 to 500 | 100 to 220 | < 100 |  |  |
| O=C1c2c(-c3cccnc3)ccnc2CN1CCc1cn2ccccc2n1 [Example 358, 6-(2-Imidazo[1,2-a]pyridin-2-yl-ethyl)-4-pyridin-3-yl-6,7-dihydro-pyrrolo[3,4-b]pyridin-5-one] |  | < 100 | < 100 |  |  |
| O=C1c2c(cccc2N2CCOCC2)CN1CCc1nc2ccccn2n1 [Example 231, 7-Morpholin-4-yl-2-(2-[1,2,4]triazolo[1,5-a]pyridin-2-yl-ethyl)-2,3-dihydro-isoindol-1-one] |  | < 100 | < 100 |  |  |
| C=C(C)c1ccc(Oc2ccc(-c3cccc4c3C(=O)N(CCc3ccc5ccccc5n3)C4)cc2)cc1 [Example 146, 7-[4-(4-Isopropenyl-phenoxy)-phenyl]-2-(2-quinolin-2-yl-ethyl)-2,3-dihydro-isoindol-1-one] |  | > 220 | 100 to 220 |  |  |
| COc1ccc(N2CCN(C3CCN(C)CC3)CC2)c2c1CN(CCc1ccc3ccccc3n1)C2=O [Example 269, 4-Methoxy-7-[4-(1-methyl-piperidin-4-yl)-piperazin-1-yl]-2-(2-quinolin-2-yl-ethyl)-2,3-dihydro-isoindol-1-one di-trifluoroacetate] |  | < 100 | < 100 |  |  |
| O=C1c2c(cccc2OCc2ccccn2)CN1CCc1ccc2ccccc2n1 [Example 129, 7-(Pyridin-2-ylmethoxy)-2-(2-quinolin-2-yl-ethyl)-2,3-dihydro-isoindol-1-one] |  | 100 to 220 | < 100 |  |  |
| CN1CCN(c2cccc3c2CN(CCc2ccc4ccccc4n2)C3=O)CC1 [Example 144, 4-(4-Methyl-piperazin-1-yl)-2-(2-quinolin-2-yl-ethyl)-2,3-dihydro-isoindol-1-one] |  | < 100 | 100 to 220 |  |  |
| CN1CCN(c2cccc3c2C(=O)N(CCc2nc4ccccn4n2)C3)CC1 [Example 233, 7-(4-Methyl-piperazin-1-yl)-2-(2-[1,2,4]triazolo[1,5-a]pyridin-2-yl-ethyl)-2,3-dihydro-isoindol-1-one] |  | < 100 | < 100 |  |  |
| Cc1ccc(COc2cccc3c2C(=O)N(CCc2ccc4ccccc4n2)C3)cn1 [Example 172, 7-(6-Methyl-pyridin-3-ylmethoxy)-2-(2-quinolin-2-yl-ethyl)-2,3-dihydro-isoindol-1-one] |  | 100 to 220 | 100 to 220 |  |  |
| COc1ccc(-c2cccc3c2C(=O)N(CCc2cn4ccccc4n2)C3)cc1 [Example 237, 2-(2-Imidazo[1,2-a]pyridin-2-yl-ethyl)-7-(4-methoxy-phenyl)-2,3-dihydro-isoindol-1-one] |  | 100 to 220 | 100 to 220 |  |  |
| O=C1c2c(cccc2-c2ccncc2)CN1CCc1ccnc(-c2ccccc2)n1 [Example 122, (2-(2-Phenylpyrimidin-4-yl)ethyl)-7-(pyridin-4-yl)isoindolin-1-one] |  |  |  | ++ (++: 100 μl min^−1 mg^−1) | + (+: 100-220 μl min^−1 mg^−1) |
| CN1CCN(c2ccnc3c2C(=O)N(CCc2nc4ccccc4n2C)C3)CC1 [Example 226, 6-[2-(1-Methyl-1H-benzoimidazol-2-yl)-ethyl]-4-(4-methyl-piperazin-1-yl)-6,7-dihydro-pyrrolo[3,4-b]pyridin-5-one trifluoroacetate] |  | < 100 | < 100 |  |  |
| Cn1nccc1-c1ccnc2c1C(=O)N(CCc1nc3ccccn3n1)C2 [Example 213, 4-(2-Methyl-2H-pyrazol-3-yl)-6-(2-[1,2,4]triazolo[1,5-a]pyridin-2-yl-ethyl)-6,7-dihydro-pyrrolo[3,4-b]pyridin-5-one trifluoroacetate] |  | < 100 | < 100 |  |  |
| CN1CCN(c2cccc3c2C(=O)N(CCc2nc4ccccc4n2C)C3)CC1 [Example 254, 2-[2-(1-Methyl-1H-benzoimidazol-2-yl)-ethyl]-7-(4-methyl-piperazin-1-yl)-2,3-dihydro-isoindol-1-one] |  | < 100 | < 100 |  |  |
| O=C1c2c(NC3COC3)ccnc2CN1CCc1cn2ccccc2n1 [Example 360, 6-(2-Imidazo[1,2-a]pyridin-2-yl-ethyl)-4-(oxetan-3-ylamino)-6,7-dihydro-pyrrolo[3,4-b]pyridin-5-one] |  | < 100 | < 100 |  |  |
| CCN1CCN(C2CCN(c3cccc4c3C(=O)N(CCc3ccc5ccccc5n3)C4)CC2)CC1 [Example 157, 7-[4-(4-Ethyl-piperazin-1-yl)-piperidin-1-yl]-2-(2-quinolin-2-yl-ethyl)-2,3-dihydro-isoindol-1-one trifluoroacetate] |  | > 220 | < 100 |  |  |
| CC1(O)CCC(Nc2ccc(-c3cccc4c3C(=O)N(CCc3ccc5ccccc5n3)C4)cc2Cl)CC1 (stereo not drawn) [Example 155, 7-[3-Chloro-4-(4-hydroxy-4-methyl-cyclohexylamino)-phenyl]-2-(2-quinolin-2-yl-ethyl)-2,3-dihydro-isoindol-1-one hydrochloride] |  | > 220 | 100 to 220 |  |  |

Continued, in another order:

| IC50 (PDE10A (human)) [nM] | microsomal CLint at 0.5 μM [1] [µL/min/mg] | microsomal CLint at 0.5 μM [2] [µL/min/mg] | Compound | Human mCl (mikrosomal clearance) ([1]; human liver microsomes, 0.5 μM test substance, 0.25 mg microsomal protein, pH 7.4, 37° C., NADPH) | Rat mCl (mikrosomal clearance) ([2]; rat liver microsomes, 0.5 μM test substance, 0.25 mg microsomal protein, pH 7.4, 37° C., NADPH) |
| --- | --- | --- | --- | --- | --- |
| 200 to 500 | < 100 | > 220 | O=C1c2c(cccc2N2C[C@@H]3C[C@H]2CN3)CN1CCc1ccc2ccccc2n1 [Example 101, 7-(1S,4S)-2,5-Diaza-bicyclo[2.2.1]hept-2-yl-2-(2-quinolin-2-yl-ethyl)-2,3-dihydro-isoindol-1-one] |  |  |
|  | 100 to 220 | > 220 | O=C1c2c(cccc2N2CC[C@@H]3NCC[C@@H]3C2)CN1CCc1ccc2ccccc2n1 [Example 220, 7-(3aR,7aS)-Octahydro-pyrrolo[3,2-c]pyridin-5-yl-2-(2-quinolin-2-yl-ethyl)-2,3-dihydro-isoindol-1-one trifluoroacetate] |  |  |
|  | 100 to 220 | > 220 | O=C1c2c(cccc2N2C[C@H]3CCCNC[C@H]3C2)CN1CCc1ccc2ccccc2n1 [Example 318, 7-(3aS,8aS)-Octahydro-pyrrolo[3,4-c]azepin-2-yl-2-(2-quinolin-2-yl-ethyl)-2,3-dihydro-isoindol-1-one trifluoroacetate] |  |  |
|  | > 220 | 100 to 220 | CC1CN(c2cccc3c2C(=O)N(CCc2ccc4ccccc4n2)C3)CCO1 (stereo not drawn) [Example 228, 7-(2-Methyl-morpholin-4-yl)-2-(2-quinolin-2-yl-ethyl)-2,3-dihydro-isoindol-1-one trifluoroacetate] |  |  |
|  | 100 to 220 | 100 to 220 | COCC1CN(c2cccc3c2C(=O)N(CCc2ccc4ccccc4n2)C3)CCO1 (stereo not drawn) [Example 298, 7-(2-Methoxymethyl-morpholin-4-yl)-2-(2-quinolin-2-yl-ethyl)-2,3-dihydro-isoindol-1-one] |  |  |
|  | 100 to 220 | < 100 | CN1CCN(C2CCN(c3cccc4c3C(=O)N(CCc3ccc5ccccc5n3)C4)CC2)CC1 [Example 100, 7-[4-(4-Methyl-piperazin-1-yl)-piperidin-1-yl]-2-(2-quinolin-2-yl-ethyl)-2,3-dihydro-isoindol-1-one trifluoroacetate] |  |  |
|  | > 220 | 100 to 220 | O=C1c2c(cccc2N2CCN(c3cccnc3)CC2)CN1CCc1ccc2ccccc2n1 [Example 159, 7-(4-Pyridin-3-yl-piperazin-1-yl)-2-(2-quinolin-2-yl-ethyl)-2,3-dihydro-isoindol-1-one trifluoroacetate] |  |  |
|  | < 100 | < 100 | CN(C)CC1CN(c2cccc3c2C(=O)N(CCc2ccc4ccccc4n2)C3)CCO1 (stereo not drawn) [Example 229, 7-(2-Dimethylaminomethyl-morpholin-4-yl)-2-(2-quinolin-2-yl-ethyl)-2,3-dihydro-isoindol-1-one trifluoroacetate] |  |  |
|  | < 100 | < 100 | CN1CCN(Cc2cccc3c2C(=O)N(CCc2ccc4ccccc4n2)C3)CC1 [Example 177, 7-(4-Methyl-piperazin-1-ylmethyl)-2-(2-quinolin-2-yl-ethyl)-2,3-dihydro-isoindol-1-one] |  |  |
